Assay results published in PMC6009955, “Synthesis of new pyridothienopyrimidinone and pyridothienotriazolopyrimidine derivatives as pim-1 inhibitors” (Journal of Enzyme Inhibition and Medicinal Chemistry, 2017).
Read-outs that look alike come from different tables or passages of the source.

Tests used:
pim-1 = conditions: cited from earlier work
pim-2 = conditions: cited from earlier work
[1] = target: T1, Human proto-oncogene serine/threonine-protein kinase pim-1 (PIM1) (Homo sapiens, UniProt P11309); experiment: Pim-1 kinase inhibitory activity (PIM1 ELISA kit); format: biochemical; conditions: for inhibition at 25 µM: read-out: % Inhibition at 25µM; for IC50: tested at 0.2, 1, 5 and 25 µM
T1 construct: purchased MBS7573
T1 sequence (P11309 whole entry): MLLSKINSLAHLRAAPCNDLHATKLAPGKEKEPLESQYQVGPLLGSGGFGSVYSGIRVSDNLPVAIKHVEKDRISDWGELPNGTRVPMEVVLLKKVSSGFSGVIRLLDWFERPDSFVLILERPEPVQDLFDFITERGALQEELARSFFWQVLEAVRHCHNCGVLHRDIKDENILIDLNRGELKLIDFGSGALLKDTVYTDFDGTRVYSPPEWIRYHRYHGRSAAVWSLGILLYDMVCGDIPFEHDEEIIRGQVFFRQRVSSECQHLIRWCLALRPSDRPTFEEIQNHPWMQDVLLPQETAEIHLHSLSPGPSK
Method: The kinase inhibitory activity of the synthesised compounds was determined using Human proto-oncogene serine/threonine-protein kinase pim-1 (PIM1) ELISA Kit (catalog #MBS7573). All the compounds were tested for their inhibitory activity against pim-1 kinase at 0.2, 1, 5 and 25 µM using Staurosporine as a reference standard.

[2] = tested on: human breast adenocarcinoma (MCF7); experiment: In vitro cytotoxic activity, MTT method, MCF7; format: cell-based; conditions: MCF-7, MTT, 48 h incubation, means of three experiments
Method: Cell line cells were obtained from American Type Culture Collection (ATCC, Manassas, VA). The cell lines used in this study were human breast adenocarcinoma (MCF7) and human colon adenocarcinoma (HCT116). The cells were cultured using DMEM (Invitrogen/Life Technologies) supplemented with 10% FBS (Hyclone), 10 µg/mL insulin (Sigma) and 1% penicillin-streptomycin. All of the other chemicals and reagents were from Sigma or Invitrogen. […] The culture medium was removed to a centrifuge tube. The cell layer was rinsed with 0.25% (w/v) Trypsin 0.53 mM EDTA solution to remove all traces of serum which contains Trypsin inhibitor. Then, 2–3 ml of Trypsin EDTA solution was added and the cells were observed under an inverted microscope until the cell layer is dispersed (usually within 5–15 min.). A volume of 6 to 8 ml of complete growth medium was added and the cells were aspirated by gently pipetting. The cell suspension was transferred to the centrifuge tube with the culture medium and centrifuged at approximately 125 ×g for 5 to 10 min. The supernatant was discarded and the cells were suspended in fresh growth medium then incubated at 37 °C for 24 h. After treatment of the cells with the serial concentrations of the test compounds or the control Staurosporine in DMSO (at concentrations of 200, 100, 10, 1 and 0.1 µM), incubation was carried out for 48 h at 37 °C, then the plates were examined under the inverted microscope and proceeded for the MTT assay. The MTT method of monitoring in vitro cytotoxicity is well suited for use with multiwell plates. For best results, cells in the log phase of growth should be employed and final cell number should not exceed 10^6 cells/cm^2. Each test should include a blank containing complete medium without cells. Cell cultures were removed from the incubator into laminar flow hood. Each vial of MTT [M-5655] was reconstituted to be used with 3 ml of medium or balanced salt solution without phenol red and serum and the reconstituted MTT was added in an amount equal to 10% of the culture medium volume. Then the cultures were returned to the incubator for 2–4 h depending on the cell type and the maximum cell density. After the incubation period, the cultures were removed from incubator and the resulting formazan crystals were dissolved by adding an amount of MTT solvent (solubilisation solution) [M-8910] equal to the original culture medium volume. Gentle mixing in a gyratory shaker enhanced dissolution. Occasionally pipetting up and down [trituration] may be required to completely dissolve the MTT formazan crystals. The absorbance was measured at a wavelength of 450 nm using Bioline ELIZA reader. The background absorbance of the multiwell plates was measured at 690 nm and subtracted from the 450 nm measurement. The results are shown in Table 2 and graphically represented in Figure 5. […] The results in terms of IC50 in µM are given in Table 2 and represented graphically in Figure 5.

[3] = tested on: human colon adenocarcinoma (HCT116); experiment: In vitro cytotoxic activity, MTT method, HCT116; format: cell-based; conditions: 48 h incubation, means of three experiments
Method: Cell line cells were obtained from American Type Culture Collection (ATCC, Manassas, VA). The cell lines used in this study were human breast adenocarcinoma (MCF7) and human colon adenocarcinoma (HCT116). The cells were cultured using DMEM (Invitrogen/Life Technologies) supplemented with 10% FBS (Hyclone), 10 µg/mL insulin (Sigma) and 1% penicillin-streptomycin. All of the other chemicals and reagents were from Sigma or Invitrogen. […] The culture medium was removed to a centrifuge tube. The cell layer was rinsed with 0.25% (w/v) Trypsin 0.53 mM EDTA solution to remove all traces of serum which contains Trypsin inhibitor. Then, 2–3 ml of Trypsin EDTA solution was added and the cells were observed under an inverted microscope until the cell layer is dispersed (usually within 5–15 min.). A volume of 6 to 8 ml of complete growth medium was added and the cells were aspirated by gently pipetting. The cell suspension was transferred to the centrifuge tube with the culture medium and centrifuged at approximately 125 ×g for 5 to 10 min. The supernatant was discarded and the cells were suspended in fresh growth medium then incubated at 37 °C for 24 h. After treatment of the cells with the serial concentrations of the test compounds or the control Staurosporine in DMSO (at concentrations of 200, 100, 10, 1 and 0.1 µM), incubation was carried out for 48 h at 37 °C, then the plates were examined under the inverted microscope and proceeded for the MTT assay. The MTT method of monitoring in vitro cytotoxicity is well suited for use with multiwell plates. For best results, cells in the log phase of growth should be employed and final cell number should not exceed 10^6 cells/cm^2. Each test should include a blank containing complete medium without cells. Cell cultures were removed from the incubator into laminar flow hood. Each vial of MTT [M-5655] was reconstituted to be used with 3 ml of medium or balanced salt solution without phenol red and serum and the reconstituted MTT was added in an amount equal to 10% of the culture medium volume. Then the cultures were returned to the incubator for 2–4 h depending on the cell type and the maximum cell density. After the incubation period, the cultures were removed from incubator and the resulting formazan crystals were dissolved by adding an amount of MTT solvent (solubilisation solution) [M-8910] equal to the original culture medium volume. Gentle mixing in a gyratory shaker enhanced dissolution. Occasionally pipetting up and down [trituration] may be required to completely dissolve the MTT formazan crystals. The absorbance was measured at a wavelength of 450 nm using Bioline ELIZA reader. The background absorbance of the multiwell plates was measured at 690 nm and subtracted from the 450 nm measurement. […]

[4] = previous work, 2-aryl-2,3-dihydro derivatives ref 9, read-out: IC50 pim-1 inhibition

O=C(O)c1ccc2c(c1)nc(Nc1cccc(Cl)c1)c1ccncc12 [CX-4595]
IC50 (pim-1; read-out: IC50 (pim-1)): 48 nM | IC50 (pim-2): 186 nM

Cc1nc2sc3c(c2c(C)c1Br)NC(c1ccc(OCc2ccccc2)cc1)NC3=O (centres unmarked) [Compound 3a, 2-(4-(Benzyloxy)phenyl)-8-bromo-7,9-dimethyl-2,3-dihydropyrido[3′,2′:4,5]thieno[3,2-d]pyrimidin-4(1H)-one]
inhibition at 25 µM ([1]; pim-1 kinase, 25 µM): 83% | IC50 ([1]; pim-1 kinase): 960 nM | melting point: 255 to 256 °C

Cc1nc2sc3c(c2c(C)c1Br)NC(c1ccc(Br)cc1)NC3=O (centres unmarked) [Compound 3b, 8-Bromo-2-(4-bromophenyl)-7,9-dimethyl-2,3-dihydropyrido[3′,2′:4,5]thieno[3,2-d]pyrimidin-4(1H)-one]
inhibition at 25 µM ([1]; pim-1 kinase, 25 µM): 96% | IC50 ([1]; pim-1 kinase): 60 nM | IC50 ([2]; Homo sapiens, MCF7, 48 h): 1840 ± 120 nM | IC50 ([3]; Homo sapiens, HCT-116, 48 h): 2740 ± 150 nM | melting point: > 300 °C

Cc1nc2sc3c(c2c(C)c1Br)NC(c1ccc(Cl)cc1)NC3=O (centres unmarked) [Compound 3c, 8-Bromo-2-(4-chlorophenyl)-7,9-dimethyl-2,3-dihydropyrido[3′,2′:4,5]thieno[3,2-d]pyrimidin-4(1H)-one]
inhibition at 25 µM ([1]; pim-1 kinase, 25 µM): 92% | IC50 ([1]; pim-1 kinase): 140 nM | IC50 ([2]; Homo sapiens, MCF7, 48 h): < 500 nM | IC50 [2]: 390 ± 70 nM | melting point: > 300 °C

Cc1nc2sc3c(c2c(C)c1Br)NC(c1ccc(O)cc1O)NC3=O (centres unmarked) [Compound 3d, 8-Bromo-2-(2,4-dihydroxyphenyl)-7,9-dimethyl-2,3-dihydropyrido[3′,2′:4,5]thieno[3,2-d]pyrimidin-4(1H)-one]
inhibition at 25 µM ([1]; pim-1 kinase, 25 µM): 81% | IC50 ([1]; pim-1 kinase): 1340 nM | melting point: 290 to 291 °C

Cc1nc2sc3c(c2c(C)c1Br)NC(c1ccc(O)c(O)c1)NC3=O (centres unmarked) [Compound 3e, 8-Bromo-2-(3,4-dihydroxyphenyl)-7,9-dimethyl-2,3-dihydropyrido[3′,2′:4,5]thieno[3,2-d]pyrimidin-4(1H)-one]
inhibition at 25 µM ([1]; pim-1 kinase, 25 µM): 93% | IC50 ([1]; pim-1 kinase): 60 nM

Cc1nc2sc3c(c2c(C)c1Br)NC(c1ccc(F)cc1)NC3=O (centres unmarked) [Compound 3f, 8-Bromo-2-(4-fluorophenyl)-7,9-dimethyl-2,3-dihydropyrido[3′,2′:4,5]thieno[3,2-d]pyrimidin-4(1H)-one]
inhibition at 25 µM ([1]; pim-1 kinase, 25 µM): 89% | IC50 ([1]; pim-1 kinase): 1000 nM | melting point: > 300 °C

COc1cc(C2NC(=O)c3sc4nc(C)c(Br)c(C)c4c3N2)ccc1O (centres unmarked) [Compound 3g, 8-Bromo-2-(4-hydroxy-3-methoxyphenyl)-7,9-dimethyl-2,3-dihydropyrido[3′,2′:4,5]thieno[3,2-d]pyrimidin-4(1H)-one]
inhibition at 25 µM ([1]; pim-1 kinase, 25 µM): 92% | IC50 ([1]; pim-1 kinase): 80 nM | IC50 ([2]; Homo sapiens, MCF7, 48 h): < 500 nM | IC50 [2]: 460 ± 90 nM

COc1ccc(C2NC(=O)c3sc4nc(C)c(Br)c(C)c4c3N2)cc1 (centres unmarked) [Compound 3h, 8-Bromo-2-(4-methoxyphenyl)-7,9-dimethyl-2,3-dihydropyrido[3′,2′:4,5]thieno[3,2-d]pyrimidin-4(1H)-one]
inhibition at 25 µM ([1]; pim-1 kinase, 25 µM): 84% | IC50 ([1]; pim-1 kinase): 1170 nM | melting point: > 300 °C

COc1cc(C2NC(=O)c3sc4nc(C)c(Br)c(C)c4c3N2)cc(OC)c1OC (centres unmarked) [Compound 3i, 8-Bromo-7,9-dimethyl-2-(3,4,5-trimethoxyphenyl)-2,3-dihydropyrido[3′,2′:4,5]thieno[3,2-d]pyrimidin-4(1H)-one]
inhibition at 25 µM ([1]; pim-1 kinase, 25 µM): 81% | IC50 ([1]; pim-1 kinase): 930 nM | melting point: > 300 °C

Cc1nc2sc3c(c2c(C)c1Br)NC(c1ccsc1)NC3=O (centres unmarked) [Compound 3j, 8-Bromo-7,9-dimethyl-2-(thiophen-3-yl)-2,3-dihydropyrido[3′,2′:4,5]thieno[3,2-d]pyrimidin-4(1H)-one]
inhibition at 25 µM ([1]; pim-1 kinase, 25 µM): 95% | IC50 ([1]; pim-1 kinase): 100 nM | IC50 ([2]; Homo sapiens, MCF7, 48 h): < 500 nM | IC50 [2]: 310 ± 20 nM | IC50 ([3]; Homo sapiens, HCT-116, 48 h): 4820 ± 210 nM | melting point: 280 to 281 °C

Cc1nc2sc3c(ncn4ncnc34)c2c(C)c1Br [Compound 6, 8-bromo-7,9-dimethylpyrido[3′,2′:4,5]thieno[2,3-e][1,2,4]triazolo[1,5-c]pyrimidine]
inhibition at 25 µM ([1]; pim-1 kinase, 25 µM): 81% | IC50 ([1]; pim-1 kinase): 1080 nM | melting point: 277 to 278 °C

Cc1nc2c3sc4nc(C)c(Br)c(C)c4c3ncn2n1 [Compound 7a, 8-Bromo-2,7,9-trimethylpyrido[3′,2′:4,5]thieno[2,3-e][1,2,4]triazolo[1,5-c]pyrimidine]
inhibition at 25 µM ([1]; pim-1 kinase, 25 µM): 76% | IC50 ([1]; pim-1 kinase): 1760 nM

Cc1nc2sc3c(ncn4nc(C(F)(F)F)nc34)c2c(C)c1Br [Compound 7b, 8-Bromo-7,9-dimethyl-2-(trifluoromethyl)pyrido[3′,2′:4,5]thieno[2,3-e][1,2,4]triazolo[1,5-c]pyrimidine]
inhibition at 25 µM ([1]; pim-1 kinase, 25 µM): 93% | IC50 ([1]; pim-1 kinase): 80 nM | IC50 ([2]; Homo sapiens, MCF7, 48 h): 4620 ± 140 nM | IC50 [3]: 650 ± 40 nM | IC50 ([3]; Homo sapiens, HCT-116, 48 h): < 1000 nM | melting point: 199 to 200 °C

CCOC(=O)Cc1nc2c3sc4nc(C)c(Br)c(C)c4c3ncn2n1 [Compound 8, ethyl 2-(8-bromo-7,9-dimethylpyrido[3′,2′:4,5]thieno[2,3-e][1,2,4]triazolo[1,5-c]pyrimidin-2-yl)acetate]
inhibition at 25 µM ([1]; pim-1 kinase, 25 µM): 95% | IC50 ([1]; pim-1 kinase): 100 nM | IC50 ([2]; Homo sapiens, MCF7, 48 h): < 500 nM | IC50 [2]: 410 ± 30 nM | melting point: 198 to 199 °C

Cc1nc2sc3c(=N)n(N=Cc4ccc(Br)cc4)cnc3c2c(C)c1Br [Compound 9a, 8-Bromo-N-(4-bromobenzylidene)-4-imino-7,9-dimethylpyrido[3′,2′:4,5]thieno[3,2-d]pyrimidin-3(4H)-amine]
inhibition at 25 µM ([1]; pim-1 kinase, 25 µM): 88% | IC50 ([1]; pim-1 kinase): 520 nM | melting point: > 300 °C

Cc1nc2sc3c(=N)n(N=Cc4ccccc4C(F)(F)F)cnc3c2c(C)c1Br [Compound 9b, 8-Bromo-4-imino-7,9-dimethyl-N-(2-(trifluoromethyl)benzylidene)pyrido[3′,2′:4,5]thieno[3,2-d]pyrimidin-3(4H)-amine]
inhibition at 25 µM ([1]; pim-1 kinase, 25 µM): 89% | IC50 ([1]; pim-1 kinase): 220 nM | melting point: > 300 °C

CN[C@@H]1C[C@H]2O[C@@](C)([C@@H]1OC)n1c3ccccc3c3c4c(c5c6ccccc6n2c5c31)C(=O)NC4 [Staurosporine, reference compound]
inhibition at 25 µM [1]: 94%

Cc1nc2sc3c(c2c(C)c1Br)NC(c1ccccc1Cl)NC3=O (centres unmarked) [Va]
IC50 (pim-1; [4]): 1180 nM

Cc1nc2sc3c(c2c(C)c1Br)NC(c1ccccc1O)NC3=O (centres unmarked) [Vb]
IC50 (pim-1; [4]): 1380 nM

Cc1nc2sc3c(c2c(C)c1Br)NC(c1ccccc1C(F)(F)F)NC3=O (centres unmarked) [Vc]
IC50 (pim-1; [4]): 1970 nM
